Laboratory results from paper PMC6915887, “Inhibition of human carboxylesterases by ginsenosides: structure–activity relationships and inhibitory mechanism” (Chinese Medicine, 2019).

Legend:
Type in all cases: biochemical
hCES1A [1] = target: T1, hCES1A (Homo sapiens, UniProt P23141); experiment: hCES1A inhibition assay (DME hydrolysis in HLM); conditions: for IC50: HLM as enzyme source, DME hydrolysis as probe reaction, read-out: IC50 (μM) hCES1A;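 for all read-outs here: Read-out is D-luciferin luminescence formed from DME (3 µM) after 10 min at 37 °C in pH 6.5 PBS, HLM 1 µg/mL, inhibitor preincubated 3 min, oleanic acid as positive control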
T1 construct: tissue Bioreclamation IVT lot no; X008067; host or cells: pooled human liver microsomes (50 donors)
T1 sequence (P23141 18-567): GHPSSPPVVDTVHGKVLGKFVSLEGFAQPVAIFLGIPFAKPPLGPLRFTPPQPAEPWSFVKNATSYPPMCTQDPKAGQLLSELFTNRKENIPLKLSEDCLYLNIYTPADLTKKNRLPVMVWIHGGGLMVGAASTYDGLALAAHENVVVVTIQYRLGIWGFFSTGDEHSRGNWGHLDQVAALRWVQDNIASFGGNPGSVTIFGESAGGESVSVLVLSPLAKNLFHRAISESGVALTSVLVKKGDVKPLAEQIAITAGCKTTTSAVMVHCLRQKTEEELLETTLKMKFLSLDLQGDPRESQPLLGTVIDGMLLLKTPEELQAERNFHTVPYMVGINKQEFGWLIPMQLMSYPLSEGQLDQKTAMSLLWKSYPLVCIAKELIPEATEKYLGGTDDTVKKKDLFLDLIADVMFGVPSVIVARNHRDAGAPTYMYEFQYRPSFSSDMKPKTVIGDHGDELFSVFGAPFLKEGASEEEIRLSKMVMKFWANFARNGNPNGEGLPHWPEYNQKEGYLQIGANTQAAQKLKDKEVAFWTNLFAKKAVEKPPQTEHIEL
Experimental: DME hydrolysis was used as the probe reaction to assay the inhibitory effects of 25 ginsenosides against hCES1A, oleanic acid was used as a positive control of inhibition assays [43]. The incubation system contains 91 μL PBS (0.1 M pH 6.5), 5 μL HLM (1 μg/mL, final concentration) and 2 μL corresponding inhibitor. After pre-incubating the reaction mixture for 3 min at 37 °C, the reaction was started by adding 2 μL DME (3 μM, final concentration) with a total volume of 100 μL, in which the final content of DMSO was limited to 2% (v/v). After incubating for 10 min at 37 °C in a shaking bath, LDR (50 μL, equal volume of the incubation mixture) was added to terminate the reaction. The luminescence signals of D-luciferin (the hydrolytic metabolite of DME) was measured (excitation wavelength 580 nm) by a multi-mode microplate reader (SpectraMax® iD3, Molecular Devices, Austria).

hCES2A [2] = target: T2, hCES2A (Homo sapiens, UniProt O00748); experiment: hCES2A inhibition assay (FD hydrolysis in HLM); conditions: for inhibition of hCES2A-mediated FD hydrolysis (residual activity screen): HLM, ginsenoside 100 μM, result in words; for Specificity (hCES1A/hCES2A): ratio of IC50 values in HLM;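 for all read-outs here: HLM at 1 µg/mL in 0.1 M PBS pH 7.4, kinetic read at 37 °C every 30 s over 30 min, triplicate runs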
T2 construct: tissue Bioreclamation IVT lot no; X008067; host or cells: pooled human liver microsomes (50 donors)
T2 sequence (O00748 27-559): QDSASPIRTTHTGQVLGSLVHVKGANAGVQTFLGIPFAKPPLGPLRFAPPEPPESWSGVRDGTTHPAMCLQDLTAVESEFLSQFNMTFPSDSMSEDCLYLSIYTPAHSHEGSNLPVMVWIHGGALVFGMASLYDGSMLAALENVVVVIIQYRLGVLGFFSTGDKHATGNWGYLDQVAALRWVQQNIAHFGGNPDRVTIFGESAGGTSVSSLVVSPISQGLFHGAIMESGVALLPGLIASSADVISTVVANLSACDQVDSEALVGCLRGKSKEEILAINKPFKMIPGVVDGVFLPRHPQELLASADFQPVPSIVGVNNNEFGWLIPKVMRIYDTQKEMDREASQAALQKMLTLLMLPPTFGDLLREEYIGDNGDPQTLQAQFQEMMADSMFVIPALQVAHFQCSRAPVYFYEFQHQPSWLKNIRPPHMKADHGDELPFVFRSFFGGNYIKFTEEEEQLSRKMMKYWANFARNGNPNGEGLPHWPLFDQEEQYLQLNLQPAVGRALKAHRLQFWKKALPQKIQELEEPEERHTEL
Experimental: The incubation system contains 2 μL HLM (1 μg/mL, final concentration), 194 μL PBS (0.1 M pH 7.4) and 2 μL corresponding inhibitor. […] The kinetic parameters were set at 30 reads, with an interval of 30 s (30 min) and shake during 5 s before the first read at 37 °C.

hCES1A [3] = target: T1, hCES1A; experiment: Inhibition kinetic analyses of hCES1A-mediated DME hydrolysis in HLM
Experimental: According to the inhibition kinetics of both hCES1A and hCES2A, which were investigated by using varying concentrations of probe substrates in the presence of different concentrations of ginseng compounds (inhibitors), the inhibition constant (Ki) and inhibition kinetic types of ginsenosides were determined. The experimental details used to determine the inhibition constants have been reported previously.
All inhibition assays were performed in triplicate, nonlinear regression was used to determine the IC50 and Ki values with GraphPad Prism 7.0 software (GraphPad Software, Inc., La Jolla, USA).

hCES2A [4] = target: T2, hCES2A; experiment: Inhibition kinetic analyses of hCES2A-mediated FD hydrolysis in HLM

Row | Structure (SMILES) | IC50 (hCES1A [1]) [µM] | inhibition of hCES2A-mediated FD hydrolysis (residual activity screen) (hCES2A [2]) | Specificity (hCES1A/hCES2A) (hCES2A [2]) | Inhibition mode (hCES1A [3]) | Ki (hCES1A [3]) [nM] | Inhibition mode (hCES2A [4]) | inhibition of hCES1A-mediated DME hydrolysis (residual activity screen) (hCES1A [1]; HLM, ginsenoside 100 μM, result in words) | IC50 (hCES2A [2]; HLM as enzyme source, FD hydrolysis as probe reaction, read-out: IC50 (μM) hCES2A) [µM] | Ki (hCES2A [4]) [nM]
1 | CC(C)=CCC[C@](C)(O)[C@H]1CC[C@]2(C)[C@@H]1CC[C@@H]1[C@@]3(C)CC[C@H](O)C(C)(C)[C@@H]3CC[C@]12C [DM, Dammarenediol II] | 1.99 ± 0.21 | strong or moderate inhibition | 3.06 | Competitive | 2100 | Mixed |  |  | 
2 | CC(C)=CCC[C@](C)(O[C@@H]1O[C@H](CO)[C@@H](O)[C@H](O)[C@H]1O)C1CC[C@]2(C)C1CCC1[C@@]3(C)CC[C@H](O)C(C)(C)C3CC[C@]12C (stereo partly drawn) [DMG, 20S-O-β-(D-glucosyl)-dammarenediol II] | 1.76 ± 0.28 | strong inhibition |  | Competitive | 2400 | Mixed | strong inhibition | 1.06 ± 0.21 | 2830
3 | CC(C)=CCC[C@](C)(O)[C@H]1CC[C@]2(C)[C@@H]1[C@H](O)C[C@@H]1[C@@]3(C)CC[C@H](O)C(C)(C)[C@@H]3CC[C@]12C [PPD, protopanaxadiol] | > 100 | strong or moderate inhibition | > 75.18 |  |  | Mixed |  |  | 
4 | CC(C)=CCC[C@](C)(O)[C@H]1CC[C@]2(C)[C@@H]1[C@H](O)C[C@@H]1[C@@]3(C)CC[C@H](O)C(C)(C)[C@@H]3[C@@H](O)C[C@]12C [PPT, protopanaxatriol] | > 100 | strong or moderate inhibition | > 116.28 |  |  | Mixed |  |  | 
